From ChEMBL document CHEMBL2434948, “Discovery, synthesis, and characterization of an orally bioavailable, brain penetrant inhibitor of mixed lineage kinase 3” (J Med Chem, 2013)
Calls of active or inactive are those of the source. No cut-off for these calls is given here.

Columns and labels:
[1] = biological target: Mitogen-activated protein kinase kinase kinase 11 (Homo sapiens, UniProt Q16584); details: 300 nM
[2] = biological target: Mitogen-activated protein kinase 11 (Homo sapiens) (UniProt Q15759); assay: Inhibition of human wild type p38b at 1 uM by qPCR analysis
Mitogen-activated protein kinase 11 (Homo sapiens), sequence (Q15759 whole entry): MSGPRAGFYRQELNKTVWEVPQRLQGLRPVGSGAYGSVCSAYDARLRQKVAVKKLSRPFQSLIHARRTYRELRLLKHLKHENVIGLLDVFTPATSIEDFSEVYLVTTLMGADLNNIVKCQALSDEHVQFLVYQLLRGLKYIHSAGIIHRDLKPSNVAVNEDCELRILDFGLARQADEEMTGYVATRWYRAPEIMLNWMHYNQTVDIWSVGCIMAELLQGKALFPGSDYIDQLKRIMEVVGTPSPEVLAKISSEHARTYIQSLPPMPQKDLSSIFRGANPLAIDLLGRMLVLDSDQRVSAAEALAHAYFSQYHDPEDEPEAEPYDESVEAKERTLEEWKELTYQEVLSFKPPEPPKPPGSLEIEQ

[3] = biological target: BDNF/NT-3 growth factors receptor (Homo sapiens, UniProt Q16620)
BDNF/NT-3 growth factors receptor, sequence (Q16620 whole entry): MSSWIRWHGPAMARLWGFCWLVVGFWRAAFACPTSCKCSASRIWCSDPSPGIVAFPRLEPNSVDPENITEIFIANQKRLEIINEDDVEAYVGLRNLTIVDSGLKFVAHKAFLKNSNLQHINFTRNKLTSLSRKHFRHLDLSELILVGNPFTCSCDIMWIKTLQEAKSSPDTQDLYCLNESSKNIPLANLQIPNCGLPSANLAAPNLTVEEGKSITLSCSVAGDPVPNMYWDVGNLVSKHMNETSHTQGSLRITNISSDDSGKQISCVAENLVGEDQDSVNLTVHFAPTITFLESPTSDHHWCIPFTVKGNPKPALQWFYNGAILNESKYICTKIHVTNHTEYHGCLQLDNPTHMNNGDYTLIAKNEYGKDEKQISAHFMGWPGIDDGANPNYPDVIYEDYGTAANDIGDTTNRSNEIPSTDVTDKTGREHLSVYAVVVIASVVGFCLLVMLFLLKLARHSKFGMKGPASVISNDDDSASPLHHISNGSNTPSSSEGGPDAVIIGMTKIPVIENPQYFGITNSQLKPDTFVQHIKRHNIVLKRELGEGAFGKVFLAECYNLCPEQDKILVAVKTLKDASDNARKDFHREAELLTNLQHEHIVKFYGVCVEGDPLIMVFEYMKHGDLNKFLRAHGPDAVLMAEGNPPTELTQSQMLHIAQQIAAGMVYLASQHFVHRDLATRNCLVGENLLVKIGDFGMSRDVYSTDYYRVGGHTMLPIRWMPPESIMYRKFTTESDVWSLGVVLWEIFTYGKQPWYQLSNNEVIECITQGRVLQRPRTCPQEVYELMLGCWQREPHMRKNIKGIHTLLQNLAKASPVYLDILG
Description: Inhibition of wild type human TRKB by high throughput ATP-[33P] radiolabeled assay

[4] = biological target: Non-receptor tyrosine-protein kinase TYK2 (Homo sapiens) (UniProt P29597); assay: Inhibition of human wild type TYK2 at 1 uM by qPCR analysis relative to control
[5] = biological target: T1, Receptor-type tyrosine-protein kinase FLT3 (Homo sapiens, UniProt P36888)
T1 sequence (P36888 whole entry): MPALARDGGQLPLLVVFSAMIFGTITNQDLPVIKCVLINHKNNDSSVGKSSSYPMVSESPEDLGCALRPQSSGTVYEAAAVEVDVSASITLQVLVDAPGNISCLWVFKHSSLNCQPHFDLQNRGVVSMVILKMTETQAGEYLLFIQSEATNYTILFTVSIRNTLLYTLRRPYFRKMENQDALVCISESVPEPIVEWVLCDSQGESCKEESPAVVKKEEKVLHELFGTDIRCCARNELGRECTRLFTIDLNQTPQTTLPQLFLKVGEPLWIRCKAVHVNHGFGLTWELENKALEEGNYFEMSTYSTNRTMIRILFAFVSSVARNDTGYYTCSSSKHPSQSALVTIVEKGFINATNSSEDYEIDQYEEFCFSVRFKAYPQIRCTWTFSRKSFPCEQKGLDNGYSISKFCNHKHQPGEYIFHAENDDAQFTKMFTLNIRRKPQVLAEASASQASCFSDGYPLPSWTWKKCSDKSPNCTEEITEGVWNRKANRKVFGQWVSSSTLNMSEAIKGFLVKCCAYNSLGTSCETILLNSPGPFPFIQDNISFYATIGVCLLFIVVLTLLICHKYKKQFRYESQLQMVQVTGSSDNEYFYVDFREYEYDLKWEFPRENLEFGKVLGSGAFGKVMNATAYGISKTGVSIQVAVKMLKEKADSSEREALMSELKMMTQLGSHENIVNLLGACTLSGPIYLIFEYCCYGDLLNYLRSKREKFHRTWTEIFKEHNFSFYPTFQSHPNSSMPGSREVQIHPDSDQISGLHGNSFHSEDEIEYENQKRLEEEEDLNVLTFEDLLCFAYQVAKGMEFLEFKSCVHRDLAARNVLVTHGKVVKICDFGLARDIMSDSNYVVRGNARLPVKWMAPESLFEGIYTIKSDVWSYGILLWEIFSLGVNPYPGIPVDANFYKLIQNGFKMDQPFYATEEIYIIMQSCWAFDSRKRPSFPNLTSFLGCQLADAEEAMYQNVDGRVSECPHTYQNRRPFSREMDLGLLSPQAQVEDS
Description: Inhibition of wild type human FLT3 by high throughput ATP-[33P] radiolabeled assay

[6] = biological target: Mitogen-activated protein kinase kinase kinase kinase 4 (Homo sapiens) (UniProt O95819); assay: Binding affinity to human wild type MAP4K4 at 1 uM by qPCR analysis
[7] = biological target: Proto-oncogene tyrosine-protein kinase Src (Homo sapiens, UniProt P12931)
Description: Inhibition of wild type human SRC by high throughput ATP-[33P] radiolabeled assay

[8] = biological target: Mitogen-activated protein kinase 1 (Homo sapiens, UniProt P28482); assay: Inhibition of human wild type ERK2 at 1 uM by qPCR analysis
[9] = biological target: Serine/threonine-protein kinase MARK1 (Homo sapiens) (UniProt Q9P0L2); assay: Inhibition of human wild type MARK1 at 1 uM by qPCR analysis relative to control
Serine/threonine-protein kinase MARK1 (Homo sapiens), sequence (Q9P0L2 whole entry, looked up): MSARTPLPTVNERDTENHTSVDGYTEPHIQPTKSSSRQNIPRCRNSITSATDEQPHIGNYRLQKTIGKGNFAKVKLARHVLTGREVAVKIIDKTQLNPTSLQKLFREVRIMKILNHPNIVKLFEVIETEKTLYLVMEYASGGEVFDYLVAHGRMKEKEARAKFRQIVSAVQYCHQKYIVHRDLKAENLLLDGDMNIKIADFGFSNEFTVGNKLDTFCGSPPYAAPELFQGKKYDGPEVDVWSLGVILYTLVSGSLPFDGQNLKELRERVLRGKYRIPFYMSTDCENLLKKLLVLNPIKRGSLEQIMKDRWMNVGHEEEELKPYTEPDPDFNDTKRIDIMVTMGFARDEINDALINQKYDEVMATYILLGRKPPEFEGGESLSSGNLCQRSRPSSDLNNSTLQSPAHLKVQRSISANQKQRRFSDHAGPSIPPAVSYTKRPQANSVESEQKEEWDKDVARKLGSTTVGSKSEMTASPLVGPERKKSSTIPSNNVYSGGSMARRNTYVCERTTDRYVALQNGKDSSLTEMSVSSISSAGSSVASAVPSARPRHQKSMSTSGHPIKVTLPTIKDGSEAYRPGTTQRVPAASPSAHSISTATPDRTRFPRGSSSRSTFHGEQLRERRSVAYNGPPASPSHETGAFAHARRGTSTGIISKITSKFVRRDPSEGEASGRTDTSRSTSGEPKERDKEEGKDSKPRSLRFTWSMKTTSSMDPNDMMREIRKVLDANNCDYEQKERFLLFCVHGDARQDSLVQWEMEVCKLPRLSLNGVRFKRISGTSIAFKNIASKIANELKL

[10] = biological target: Leucine-rich repeat serine/threonine-protein kinase 2 (Homo sapiens, UniProt Q5S007)
Description: Inhibition of human wild type LRRK2 by qPCR analysis

Brain = assay: Drug uptake in C57BL/6 mouse brain at 10 mg/kg, iv measured over 6 hrs; format: ADME, organism-based; set-up: dose 10 mg/kg, route intravenous; details: in vivo
[11] = biological target: Serine/threonine-protein kinase B-raf (Homo sapiens) (UniProt P15056); assay: Inhibition of human wild type BRAF at 1 uM by qPCR analysis
[12] = biological target: Rho-associated protein kinase 1 (Homo sapiens, UniProt Q13464); details: 1 uM
Rho-associated protein kinase 1, sequence (Q13464 2-1354 limits assumed): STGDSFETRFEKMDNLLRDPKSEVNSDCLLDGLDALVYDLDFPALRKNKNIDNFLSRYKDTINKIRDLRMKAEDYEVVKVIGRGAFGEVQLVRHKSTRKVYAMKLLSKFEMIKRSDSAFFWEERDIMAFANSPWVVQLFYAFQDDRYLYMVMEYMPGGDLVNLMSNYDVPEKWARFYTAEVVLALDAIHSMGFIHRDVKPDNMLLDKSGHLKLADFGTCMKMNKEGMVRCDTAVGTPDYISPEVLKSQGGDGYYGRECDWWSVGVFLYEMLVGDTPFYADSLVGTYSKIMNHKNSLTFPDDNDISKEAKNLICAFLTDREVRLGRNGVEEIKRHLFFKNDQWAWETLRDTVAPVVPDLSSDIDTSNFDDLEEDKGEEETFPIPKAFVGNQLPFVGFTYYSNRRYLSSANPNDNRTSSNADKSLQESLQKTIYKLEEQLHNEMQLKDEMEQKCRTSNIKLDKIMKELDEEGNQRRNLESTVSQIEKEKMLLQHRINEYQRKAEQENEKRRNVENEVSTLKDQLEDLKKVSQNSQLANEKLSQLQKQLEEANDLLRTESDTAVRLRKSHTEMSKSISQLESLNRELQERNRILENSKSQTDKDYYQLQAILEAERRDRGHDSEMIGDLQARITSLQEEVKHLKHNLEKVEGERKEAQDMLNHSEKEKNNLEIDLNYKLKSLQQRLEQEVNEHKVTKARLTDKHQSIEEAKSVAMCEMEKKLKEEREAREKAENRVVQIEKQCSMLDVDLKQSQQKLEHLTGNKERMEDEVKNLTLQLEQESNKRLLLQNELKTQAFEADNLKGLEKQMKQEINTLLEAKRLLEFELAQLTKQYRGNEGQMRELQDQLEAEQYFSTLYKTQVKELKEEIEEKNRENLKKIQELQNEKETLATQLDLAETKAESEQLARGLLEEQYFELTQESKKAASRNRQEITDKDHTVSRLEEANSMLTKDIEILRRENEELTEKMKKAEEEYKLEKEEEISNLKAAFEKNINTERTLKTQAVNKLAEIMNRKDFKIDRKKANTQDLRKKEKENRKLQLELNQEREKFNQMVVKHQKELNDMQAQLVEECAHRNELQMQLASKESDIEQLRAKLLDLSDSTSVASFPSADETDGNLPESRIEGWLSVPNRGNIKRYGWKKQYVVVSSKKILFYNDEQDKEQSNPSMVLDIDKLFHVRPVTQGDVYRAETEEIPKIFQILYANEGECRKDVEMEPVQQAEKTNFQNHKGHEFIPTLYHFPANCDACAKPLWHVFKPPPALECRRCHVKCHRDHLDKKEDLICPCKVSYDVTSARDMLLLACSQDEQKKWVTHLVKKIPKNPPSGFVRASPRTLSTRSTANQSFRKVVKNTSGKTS
Description: Inhibition of human wild type ROCK1 at 1 uM by qPCR analysis relative to control

[13] = biological target: Dual specificity protein kinase CLK4 (Homo sapiens) (UniProt Q9HAZ1); assay: Inhibition of human wild type CLK4 at 1 uM by qPCR analysis relative to control
Dual specificity protein kinase CLK4 (Homo sapiens), sequence (Q9HAZ1 whole entry, looked up): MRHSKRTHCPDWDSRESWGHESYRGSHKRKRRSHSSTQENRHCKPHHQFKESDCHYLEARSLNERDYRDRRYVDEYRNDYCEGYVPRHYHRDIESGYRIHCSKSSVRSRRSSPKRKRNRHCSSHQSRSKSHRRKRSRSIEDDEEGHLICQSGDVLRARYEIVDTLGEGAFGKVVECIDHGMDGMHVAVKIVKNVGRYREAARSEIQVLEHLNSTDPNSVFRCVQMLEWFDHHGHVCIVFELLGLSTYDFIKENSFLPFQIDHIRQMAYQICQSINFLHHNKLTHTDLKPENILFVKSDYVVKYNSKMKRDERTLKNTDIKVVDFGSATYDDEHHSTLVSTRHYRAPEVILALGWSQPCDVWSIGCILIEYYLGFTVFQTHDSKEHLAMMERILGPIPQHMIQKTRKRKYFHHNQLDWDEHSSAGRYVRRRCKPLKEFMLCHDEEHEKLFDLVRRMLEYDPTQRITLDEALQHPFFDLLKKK

[14] = biological target: Mast/stem cell growth factor receptor Kit (Homo sapiens) (UniProt P10721); assay: Inhibition of human wild type KIT at 1 uM by qPCR analysis relative to control
Mast/stem cell growth factor receptor Kit (Homo sapiens), sequence (P10721 whole entry): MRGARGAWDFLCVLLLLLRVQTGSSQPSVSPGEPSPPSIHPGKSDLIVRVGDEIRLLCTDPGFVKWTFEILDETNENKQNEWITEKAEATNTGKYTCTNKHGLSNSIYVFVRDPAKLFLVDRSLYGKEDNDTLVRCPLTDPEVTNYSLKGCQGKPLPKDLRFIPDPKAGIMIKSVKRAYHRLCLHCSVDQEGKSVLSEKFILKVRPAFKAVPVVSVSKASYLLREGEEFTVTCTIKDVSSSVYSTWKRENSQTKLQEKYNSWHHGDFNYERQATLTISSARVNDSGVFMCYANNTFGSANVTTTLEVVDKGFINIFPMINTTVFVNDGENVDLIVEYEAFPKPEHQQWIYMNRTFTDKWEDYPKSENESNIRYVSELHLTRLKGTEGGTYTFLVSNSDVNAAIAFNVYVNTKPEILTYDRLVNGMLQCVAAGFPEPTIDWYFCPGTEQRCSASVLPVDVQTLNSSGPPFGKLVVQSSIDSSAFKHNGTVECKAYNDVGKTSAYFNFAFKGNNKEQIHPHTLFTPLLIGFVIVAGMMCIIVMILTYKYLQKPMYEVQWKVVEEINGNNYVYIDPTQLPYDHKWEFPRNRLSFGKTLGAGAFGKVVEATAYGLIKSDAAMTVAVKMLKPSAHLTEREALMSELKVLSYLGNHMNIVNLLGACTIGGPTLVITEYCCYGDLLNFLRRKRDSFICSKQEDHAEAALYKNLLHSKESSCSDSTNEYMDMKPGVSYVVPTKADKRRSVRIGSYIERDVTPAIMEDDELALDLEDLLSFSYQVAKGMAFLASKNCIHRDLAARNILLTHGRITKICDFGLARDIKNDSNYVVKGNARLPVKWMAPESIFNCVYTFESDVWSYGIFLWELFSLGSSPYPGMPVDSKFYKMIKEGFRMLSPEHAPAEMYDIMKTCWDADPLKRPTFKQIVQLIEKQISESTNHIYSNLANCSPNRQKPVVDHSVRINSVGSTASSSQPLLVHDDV

[15] = biological target: Hepatocyte growth factor receptor (Homo sapiens, UniProt P08581)
Description: Inhibition of wild type human c-MET by high throughput ATP-[33P] radiolabeled assay

CN1CCN(Cc2ccc(-c3cnc4[nH]cc(-c5ccc6[nH]ccc6c5)c4c3)cc2)CC1
inhibition [1]: > 50% | inhibition [2]: inactive | IC50 [3]: 217 nM | inhibition [4]: > 90% | IC50 [5]: 4 nM | inhibition [6]: Active | IC50 [7]: 4.33 µM | inhibition [8]: inactive | inhibition [9]: 92% | IC50 [10]: 11 nM | Drug uptake (Brain): Active | inhibition [11]: inactive | inhibition [12]: > 90% | inhibition [13]: > 90% | inhibition [14]: > 90% | IC50 [15]: 177 nM
